{"source": "patent US8993626B2", "about": "“Methods of treatment using sterculic acid” (The United States of America, as represented by the …, priority 2010, dated 2015)", "key": {"[1]": {"system": "ARPE19 cells", "test": "Microelectronic cell sensor assay (RT-CES), 7KCh-induced cytotoxicity", "settings": "1 μM fatty acid + 15 μM 7KCh, serum free media", "description": "4×10^4 cells were seeded onto wells of 16× microtiter plates. […] Cell viability was determined as a cell index (CI) calculated from the impedance of each well automatically by the RT-CES system once per hr until the end of the experiment. The data was normalized at the point immediately prior to compound treatment.\nRT-CES® System is a cell-based assay system that monitors cellular events by measuring the electronic impedance of sensor electrodes integrated on the bottom of microtiter E-Plates. The presence of the cells will lead to an increase in the electrode impedance. The more cells attached to the sensor, the higher the impedance that could be monitored with RT-CES.\n1) Cells were cultivated in the ACEA's 16X E-plate device containing microelectrodes at the bottom of each well to measure contact area and electrical properties of adherent cells. […]\n4) Cell growth was monitored periodically (every 1 hr) for indicated durations via calculation of a “cell index” (reflect to the surface area covered by the cells) in each well. […]\n6) The sensor devices were put into the incubator again and the cells were continuously monitored cellular status changes.\n7) Cell viability was determined as a cell index (CI) calculated from the impedance of each well automatically by the RT-CES system once per hr until the end of the experiment. […]"}, "[2]": {"system": "HUVEC", "test": "HUVEC growth inhibition assay (crystal violet)", "type": "cell-based", "settings": "for IC50: Homo sapiens", "method": "HUVEC (1.5×10^3) are plated in a 96-well plate in […] of EBM-2 (Clonetic #CC3162). After 24 h (day 0), the test compound (100 μL) is added to each well at 2× the desired concentration (5-7 concentration levels) in EBM-2 medium. On day 0, one plate is stained with 0.5% crystal violet in 20% methanol for 10 minutes, rinsed with water, and air-dried. The remaining plates are incubated for 72 h at 37° C. After 72 h, plates are stained with 0.5% crystal violet in 20% methanol, rinsed with water, and air-dried. The stain is eluted with 1:1 solution of ethanol:0.1M sodium citrate (including day 0 plate), and absorbance is measured at 540 nm with an ELISA reader (Dynatech Laboratories). Day 0 absorbance is subtracted from the 72 h plates and data is plotted as percentage of control proliferation (vehicle treated cells). IC50 (drug concentration causing 50% inhibition) is calculated from the plotted data."}, "[3]": {"system": "Colon Cancer, HCC-2998", "test": "NCI in vitro anti-cancer cell line screen (SRB)", "settings": "Homo sapiens, HCC 2998, 48 h", "description": "(§1) The human tumor cell lines used in the cancer screen panel were grown in RPMI 1640 medium containing 5% FBS and 2 mM L-glutamine. The cells were inoculated into 96-well microtiter plates in 100 μl at plating density ranging from 5000 to 40,000 cell/well. […] Following drug addition, the plates were incubated for an additional 48 h. The assay was terminated by the addition of cold 10% TCA. The supernatant was discarded, and the plates were washed five times with water and air dried. Sulforhodamine B (SRB) solution (100 μl) at 0.4% (w/v) in 1% acetic acid was added to each well, and plates were incubated for 10 min at room temperature. After staining, unbound dye was removed by washing five times with 1% acetic acid and the plates were air dried. Bound stain was subsequently solubilized with 10 mM trizma base, and the absorbance was read on an automated plate reader at a wavelength of 515 nm.\n(§2) A sulforhodamine B (SRB) end point was used to calculate the median growth inhibition (GI50). GI50 refers to the concentration at which the drug inhibits tumor cell growth by 50%."}, "[4]": {"system": "ARPE-19 cells", "test": "Fatty acids against 7KCh-mediated cell death (CCK8)", "type": "cell-based", "method": "FIGS. 12A-12C depict ARPE-19 cell viability in response to 12 μM 7KCh with or without 0.1-5 μM (A) sterculic acid and (B) stearic acid after 24 hr treatments. Error bars indicate the standard deviations. n=3-5. Two-tailed Student's t-test. (C) Representative images of changes in cell morphology in response to 12 μM 7KCh with or without 1 μM sterculic acid and stearic acid after 24 hr treatments.\nARPE-19 cells were seeded in 24-well plates with 1×10^5 cells per well and allowed to recover for 16-24 hr. Once confluency reached approximately 90%, the effect of the fatty acids against 7KCh-mediated cell death was examined 24 hr after incubation in serum-free medium with 12 μM 7KCh. Fatty acids were tested at 0.1, 0.5, 1, 5 and 10 μM concentrations. The effects of the fatty acids against 7KCh-mediated inflammation and ER stress were examined by incubating cells in 1 μM fatty acids with either 8 μM 7KCh (24 hr for quantitative real-time PCR (qRT-PCR), 24 and 48 hr for immunoblot), or 6 μM 7KCh for 48 hr (for ELISA). Three individual experiments were performed for each treatment with quadruplicate measurements performed for each experiment in 24-well plates.\nThe cell viability was determined by the dehydrogenase activity of the ARPE-19 cells using Cell Counting Kit-8 (CCK8, Dojindo, Gaithersburg, Md.) according to manufacturer's protocol.\nThe lowest effective concentrations of fatty acids that offset the 7KCh-mediated cell death were determined. […] Table 3 lists the lowest concentrations of these fatty acids required to maintain full cell viability against 12 μM 7KCh treatment. All unsaturated fatty acids protected against 7KCh-induced cell death. […] DHA, α-linolenic, and linoleic acid prevented 7KCh-mediated cell death at 5 μM but the rest of unsaturated fatty acids and dihydrosterculic acid required 10 μM to be protective."}, "[5]": {"system": "HUVEC", "test": "Cell migration (chemotaxis) assay, Boyden chamber, VEGF as chemoattractant", "type": "cell-based", "method": "Cell migration was assessed using the 48-well Boyden chamber and 8 μm pore size collagen-coated (10 μg/ml rat tail collagen; Collaborative Laboratories) polycarbonate filters (Osmonics, Inc). The bottom chamber wells received 29 μl of DMEM medium alone (baseline) or medium containing chemoattractant (VEGF). The top chambers received 45 μl of HUVEC cell suspension (1×10^6 cells/ml) prepared in DMEM+1% BSA with or without sterculic acid. After 5 h incubation at 37° C., the membrane was rinsed in PBS, fixed and stained Diff-Quick solutions. The filter was placed on a glass slide with the migrated cells facing down and cell on top were removed using Kimwipe. The testing was performed in 4 replicates and five fields were counted from each well. The data was plotted as mean migrated cells±SD. IC50 was calculated from the plotted data."}, "[6]": {"system": "Melanoma, LOX-IMVI", "test": "NCI in vitro anti-cancer cell line screen (SRB)", "settings": "Homo sapiens, 48 h", "description": "as §1, §2"}}, "note": "Like-named read-outs stand apart in the source and are kept apart here."}
{"smiles": "CCCCCCCCC1=C(CCCCCCCC(=O)O)C1", "note": "[sterculic acid, 8-(2-octacyclopropen-1-yl)octanoic acid]", "values": [{"measurement": "protection from 7KCh induced cytotoxicity (cell index)", "setting": "[1]", "result": "markedly protected"}, {"measurement": "apoptosis induction", "setting": "[2]; HUVEC", "result": "no apoptosis"}, {"measurement": "IC50", "setting": "[2]; HUVEC, 72 h, read-out: IC50 value of the anti-proliferative effect", "result": "~11.7", "unit": "µM"}, {"measurement": "IC50", "setting": "[2]; HUVEC proliferation, read-out: IC50 (drug concentration causing 50% inhibition)", "result": 18.6, "unit": "µM"}, {"measurement": "GI50", "setting": "[3]", "result": 10, "unit": "µM"}, {"measurement": "cell viability at 0.5 μM", "setting": "[4]; 0.5 μM + 12 μM 7KCh, 24 hr", "result": "significantly increased cell viability"}, {"measurement": "morphological effects on the cells (images)", "setting": "[4]; 1 μM + 12 μM 7KCh, 24 hr, FIG. 12C", "result": "effectively protect"}, {"measurement": "CONC. (μM): lowest concentration required to maintain full cell viability against 7KCh", "setting": "[4]; 12 μM 7KCh for 24 hr, tested 0.1, 0.5, 1, 5 and 10 μM", "result": 1, "unit": "µM"}, {"measurement": "protective effect against 7KCh-mediated cell death", "setting": "[4]; 12 μM 7KCh, 24 hr, 0.1-10 μM fatty acid", "result": "by far the most effective compound"}, {"measurement": "cell toxicity at migration-inhibiting concentration", "setting": "[5]", "result": "without showing significant cell toxicity"}, {"measurement": "concentration that significantly inhibited VEGF-induced endothelial cell migration", "setting": "[5]; 5 h", "result": "Less than 100 μM"}, {"measurement": "GI50", "setting": "[6]", "result": 1, "unit": "µM"}]}
